The text below walks through data of patent US9205137B2, “Maturation of gastrointestinal tract” (ANARA AB, priority 2010, dated 2015).

Data set [1] concerns suckling rats. The data set can be described thus: Set I: intestinal morphology of distal SI, Example 3. The class given is in vivo, Rattus norvegicus. The conditions noted are these: distal part of SI, day 17. The protocol: All samples collected for histology were fixed with Bouin's solution for 24 hours and then stored in 70% ethanol, dehydrated, embedded into the paraffin and then cut into sections with 5 μm thickness. The tissue sections were transferred onto the slides, rehydrated and stained with H&E according to the standard technique. After mounting under cover slips samples were examined using light microscopy to estimate ratio between total length of the villus and length of the adult type enterocytes using ImageJ program.

The subject of data set [2] is suckling rats. The data set can be described thus: Set I: body weight, GI and lymphoid organ weights, stomach pH after individual enzymes or mixture, Example 3. The conditions noted are these: day 17.
Description: All experiments were performed in young suckling rats by feeding them from 14 days of age via stomach tube for 3 continuous days (ones a day). One day after last treatment rats were euthanized and plasma and organs proceeded to study structural and functional changes of gastrointestinal system.
The pups were kept with their dam until dissection day (day 17).
In this set suckling pups were divided into five groups; control (water) amylase 10 000 USP/rat/day, lipase 4 000 USP/rat/day, protease 15 000 USP/rat/day, and mixture of these enzyme with corresponding activities per rat and day. This study was evaluating the effects of different pancreatic-like enzymes on the gut maturation and functioning and had 3 individual litters; n=12, n=10 and n=13, totally n=7 pups per each group. Each of the enzymes (Amylase, Protease and Lipase) (Sigma Aldrich) was available in the powder form and was resolved in distilled water prior to stomach feeding during days 14, 15 and 16. The volume of administered enzymes and distilled water (for control groups) was 0.01 ml/g BW. Each time, prior to the feeding procedure, the pups were weighed. […] Then 3 hours later, the pups were sedated with CO2 and anaesthetized by subcutaneous injection with a mixture of ketamine (Ketalar®, Pfizer, New York, USA, NaCl and azaperone (Stresnil®, Janssen Pharmaceutica, Beerse, Belgium), 0.01 ml/g BW. After opening the abdomen of the rats, 1 ml of blood was collected from heart by using syringes containing protease inhibitor and EDTA (50 μl) as anticoagulant and was transferred into ice-chilled tubes. After this, the pancreas was immediately dissected and rinsed with cold 0.9% NaCl, weighted and stored at −70 C. The SI was removed and its length was measured then divided into two halves, proximal and distal. Each segment was flushed out with cold 0.9% NaCl to clean the lumen and was then weighed separately. […] The stomach was removed and its content was collected into the tube (for measuring its pH) and frozen. Then cecum was dissected out, opened, rinse and weighed as well as liver and lymphoid organs spleen and thymus were dissected and weighted.
The contents of the stomach were de-frozen and then resolved with 1 ml of cold 0.9% NaCl. After resolving, they were centrifuged and the pH was measured in the supernatant using pH-meter.
All data are presented as mean±standard deviation (SD). Statistical comparisons between each group and control group were performed using the t-test. Results were considered as significant when P<0.05.
For data set [3], the system named is suckling rats. Nature of the data set: Set I: plasma concentration of marker molecules BSA and BIgG (macromolecule absorption), Example 3. The class given is in vivo, Rattus norvegicus. The conditions noted are these: 3 hours after marker feeding, day 17, in words (FIG. 6). An excerpt:
The plasma level of marker molecules was quantified by using immunoassay rocket electrophoresis and SRI (single radial immunodiffusion) for plasma BSA and BIgG respectively.

For data set [4], the system named is suckling rats. Nature of the data set: Set I: brush-border disaccharidase activity in proximal SI, Example 3. The class given is in vivo, Rattus norvegicus. The conditions noted are these: proximal part of SI, in words (FIG. 5). The protocol: The proximal samples of the SI were de-frozen and weighted and then homogenized with 9 parts of 0.9% NaCl (9 w/v). The homogenates (50 μl diluted samples) were incubated with the appropriate disaccharide (50 μl of 0.056M sucrose, maltose and lactose) for 1 hour at 37° C. After this, the liberated glucose was determined by adding glucose oxidase reagent (Sigma Chemicals), and incubated for 30 minutes. Then samples were transferred into the 96-well plate in triplication and the absorbance was measured at 450 nm. To measure the protein contents of the homogenates, Lowry method, was used, where BSA (Bovine Serum Albumin) was used as a standard. The results are presented as specific activity units per mg of protein (u/mg).

The subject of data set [5] is 14-d-old rat pups. Nature of the data set: Disaccharidase activity in distal intestinal homogenates, Creon with drug pre-treatment, Example 2. It counts as in vivo. The conditions noted are these: for Disaccharidase specific activity, Lactase / Disaccharidase specific activity, Maltase / Disaccharidase specific activity, Sucrase: drug alone, then water (no Creon), distal part. The protocol:
(§1) In both of the following experiments 14-d-old pups were weighed and divided into groups and further to subgroups depending on the aim of each experiment. Pups were fed intragastrically via a feeding tube (0.96 mm outer diameter, PE50, Becton Dickinson, Sparks, Md., USA), in a volume 0.01 mL/g b.wt. The dose(s) for each pup was repeated once daily in corresponding manner for three days (14, 15, 16-d-old).
(§2) At 17 days of age, all the pups were separated from their dams and then anesthetized by a subcutaneous injection of a mixture of Azaperone® (Stresnil; Janssen Pharmaceutica, Beerse, Belgium), 30 μg/g body weight (b.wt), and Ketamine® (Ketalar; Pfizer, New York, N.Y., USA), 170 μg/g b.wt. Once sure of anesthesia, the abdomen and thorax were then opened, euthanized via heart puncture. The small intestine was, after it was dissected out, length measured and then divided into two equally long proximal and distal parts, both of which were flashed with cold saline followed by a measurement of each one's weight. A 2 cm piece was collected from the midsection of the distal part and fixed in bouin's solution for 24 hr at room temperature for morphological changes measurements, while the rest parts of it were immediately frozen on dry ice and stored for functional analysis.
The distal part of the small intestine was homogenized in cold 0.9% NaCl (1:10 w/v). Then, the disaccharidase activities were measured by the Dahlqvist A method, by incubating the homogenates with the appropriate disaccharide for 1 h at 37° C., thereafter the liberated glucose was measured by using a glucose oxidase reagent (Sigma chemicals), as described in Dahlqvist, A, in 1984 (Assay of intestinal disaccharidases, Scand J Clin Lab Invest, 1984; 44: 169-172).
The protein contents were determined by the method of Lowry et al (Lowry O H, Rosebrough N J, Farr A L & Randall R J Protein measurement with the Folin phenol reagent, J Biol Chem; 1951:193, 265-275.), modified for 96-well microplates as described in Pierzynowsk et al (Pierzynowsk S G, Westrom B R, Svendsen J & Karlsson B W. Development of exocrine pancreas function in chronically cannulated pigs during 1-13 weeks of postnatal life. J Pediatr Gastroenterol Nutr 1990; 10:206-212), and using serial dilutions of BSA (Sigma chemicals) as a standard.
(§3) The 2nd exp. includes four litters; all pups (n=36) were randomly divided into two groups (Creon: 150 mg of capsule (lipase 10 000 USP, potease 37 500 USP, amylase 33 200 USP and water), the dose of Creon was 1.5 mg/g b.wt), then each group divided into subgroup pretreated one hour prior to enzyme feeding with anti-inflammatory drugs, Ibuprofen or Celecoxib (celecoxib; Pfizer, New York, N.Y., USA) the dose of drugs was 0.01 mg/g b.wt per day for both, diluted to give volume 0.01 mL/g b.wt. Thus six groups were obtained water/water, Ibupofen/water, Celecoxib/water, water/Creon, Ibuprofen/Creon and Celecoxib/Creon.

The subject of data set [6] is 14-d-old rat pups. The data set can be described thus: Small intestine length and weight, Creon with anti-inflammatory drug pre-treatment, Example 2. The conditions noted are these: for Small intestine Distal wt / Small intestine Length / Small intestine Proximal wt: drug 0.01 mg/g b.wt per day, then water (no Creon). The class given is in vivo. The protocol: as §1, §2
In order to compensate for individual variations in BW, the organ measurements are presented per g BW. All data are presented as mean values and standard deviations. Statistical comparisons between all groups were carried out using a one-way ANOVA analysis (SigmaStat 2.0; Jandel Scientific, San Rafael, Calif., USA) with all pairwise multiple-comparison procedures (Student Newman-Keuls method). Differences were considered to be significant when P<0.05.
as §3

Data set [7] concerns 14-d-old rat pups. The data set can be described thus: Morphometry of mature enterocytes along villi, Creon with drug pre-treatment, Example 2. The class given is in vivo. The conditions noted are these: for Mature epithelium: drug 0.01 mg/g b.wt per day, then water (no Creon). The protocol:
as §1, §2
All the samples from the distal SI were embedded into paraffin, cut laterally into […] thick sections, deparaffinated, and stained with hematoxylin and eosin according to standard procedures. All the samples were then imaged by using an Olympus PROVIS microscope (objective ×10) utilizing an Olympus DP50 camera (Olympus, Tokyo, Japan). Morphomertic analysis by measuring the ratio of the length of the adult-like epithelium to whole villi length was done by using ImageJ 1.36 program (National Institute of Health, Bethesda, Md.). […]

For data set [8] the following is noted: cited from earlier work.
For data set [9], the system named is suckling rats. Nature of the data set: Papain vs microbial protease: macromolecule absorption (BSA, BIgG in plasma), Example 8. It counts as in vivo, Rattus norvegicus. The conditions noted are these: in words (FIG. 14). The text has this:
(§4) The litter size for each dam was limited to 12 or 13 pups, to reduce variability.
(§5) Suckling pups were divided into 3 groups depending on the treatments; microbial protease as a positive control, water as negative control and enzyme from papaya fruit (papain) (in total; protease=7, papain=8, control=7). The enzymes are available in the market in form of powders and were resolved in distilled water prior to stomach feeding during 14-16 d of age. The administered dose for each enzyme was 10000 USP/animal. The volume of administered enzymes and water (for control groups) was 0.01 ml/g b.wt. Prior to the feeding procedure, the pups were weighed. […] Three hours later, the pups were anaesthetized and organs were dissected out for analyses.

Data set [10] relates to suckling rats. Nature of the data set: Papain vs microbial protease: body and organ weight, Example 8. The class given is in vivo, Rattus norvegicus.
Text: as §4, §5

Data set [11] has as its system suckling rats. The data set can be described thus: Papain vs microbial protease: intestinal disaccharidase activity in proximal SI, Example 8. The class given is in vivo, Rattus norvegicus. The conditions noted are these: proximal part of SI, in words (FIG. 13).
Text: as §4, §5
The activities of the brush-border enzymes lactase, maltase and sucrase were analyzed in the proximal part of the SI in groups treated with papain and protease.

Setting [12] is: drug one hour prior to Creon, in words.
Setting [13] is: 10000 USP/animal, days 14-16, day 17.

In the case of Lipase from B. cepacia, the “foetal-type epithelium with vacuolated enterocytes along the villi” value with suckling rats [1] was determined as 77%. Moreover, in the data set on suckling rats [2] (3 days treatment), the Body weight turned out to be 36.8 ± 2.2 gr, the Cecum amounted to 2.4 ± 0.4 mg/g BW, the “Distal SI” value is listed as 15.2 ± 0.9 mg/g BW and the Liver is recorded as 34.5 ± 1.8 mg/g BW. Further, in the data set on suckling rats [2] (3 days treatment), the Pancreas is given as 3.7 ± 0.5 mg/g BW, the “Proximal SI” value worked out at 17.5 ± 1.7 mg/g BW, the SI length was 1.5 ± 0.1 cm/g BW and the Spleen was 3.5 ± 0.4 mg/g BW. For the same molecule, in the data set with suckling rats [2] (3 days treatment), the Stomach came out at 6.9 ± 0.8 mg/g BW and the Thymus came to 4.9 ± 0.8 mg/g BW. Besides, in the data set with suckling rats [2] (stomach contents), the pH is 4.0 ± 0.3. In the data set with suckling rats [3], the “uptake of marker molecule BIgG to plasma” value is listed as “remained in a higher level” and the “uptake of marker molecule BSA to plasma” value is recorded as “remained in a higher level”. In addition, in the data set on suckling rats [4], the lactase activity entry was “higher”, the maltase activity entry is “stayed in a lower level” and the sucrase activity result is listed as “stayed in a lower level”.

Take `CC(C)Cc1ccc(C(C)C(=O)O)cc1` (centres unmarked) [Ibuprofen]: in the data set on 14-d-old rat pups [5], the “Disaccharidase specific activity, Lactase” value is 114.17 U/mg; the “Disaccharidase specific activity, Maltase” value was 82.75 ^A U/mg; the “Disaccharidase specific activity, Sucrase” value is recorded as 1.12 ^A U/mg. Further, the “effect of drug pre-treatment on disaccharidases activities under Creon” value in the data set with 14-d-old rat pups [5] (setting [12]) was “unaffected”. In the data set with 14-d-old rat pups [6], the “Small intestine Distal wt” value is 13.81 ^A mg/g bwt, the “Small intestine Length” value was 1.60 cm/g bwt and the “Small intestine Proximal wt” value is 16.24 ^A mg/g bwt. For the same molecule, the “effect of drug pre-treatment on the effect of Creon on intestinal weight and length” value in the data set on 14-d-old rat pups [6] (setting [12]) was “could not be cancelled”. Also, in the data set on 14-d-old rat pups [7], the Mature epithelium is 8.78^A %. Besides, the “effect of drug pre-treatment on mature cells (morphometric analysis) under Creon” value with 14-d-old rat pups [7] (setting [12]) is listed as “unaffected”.

As to `Cc1ccc(-c2cc(C(F)(F)F)nn2-c2ccc(S(N)(=O)=O)cc2)cc1` [Celexosib, Celecoxib], in the data set with 14-d-old rat pups [5], the “Disaccharidase specific activity, Lactase” value amounted to 100.91 U/mg; the “Disaccharidase specific activity, Maltase” value was 72.24 ^A U/mg; the “Disaccharidase specific activity, Sucrase” value is given as 1.28 ^A U/mg. Further, in the data set on 14-d-old rat pups [6], the “Small intestine Distal wt” value was 14.45 ^A mg/g bwt, the “Small intestine Length” value is given as 1.64 cm/g bwt and the “Small intestine Proximal wt” value is recorded as 16.32 ^A mg/g bwt. Further, in the data set with 14-d-old rat pups [7], the Mature epithelium is on record as 7.98^A %. Besides, in data set [8], the half life is 12 h.

For bromelain, the “intestinal macromolecular absorptive capacity” value in the data set with suckling rats [9] is “remained in a higher level”.

B1: trypsin (protein, UniProt P00760 24-246, looked up)
Serine protease 1: IVGGYTCGANTVPYQVSLNSGYHFCGGSLINSQWVVSAAHCYKSGIQVRLGEDNINVVEGNEQFISASKSIVHPSYNSNTLNNDIMLIKLKSAASLNSRVASISLPTSCASAGTQCLISGWGNTKSSGTSYPDVLKCLKAPILSDSSCKSAYPGQITSNMFCAGYLEGGKDSCQGDSGGPVVCSGKLQGIVSWGSGCAQKNKPGVYTKVCNYVSWIKQTIASN
notes: protease that breaks down proteins at the basic amino acids
On to B1, for which the “intestinal macromolecular absorptive capacity” value in the data set with suckling rats [9] is “remained in a higher level”. Moreover, the “weight of distal part of SI” value in the data set with suckling rats [10] (in words) was “increased weight”.

B2: papain (protein, UniProt P00784 134-345, looked up)
Papain: IPEYVDWRQKGAVTPVKNQGSCGSCWAFSAVVTIEGIIKIRTGNLNEYSEQELLDCDRRSYGCNGGYPWSALQLVAQYGIHYRNTYPYEGVQRYCRSREKGPYAAKTDGVRQVQPYNEGALLYSIANQPVSVVLEAAGKDFQLYRGGIFVGPCGNKVDHAVAAVGYGPNYILIKNSWGTGWGENGYIRIKRGTGNSYGVCGLYTSSFYPVKN
notes: enzyme from papaya fruit (papain)
Take B2: in the data set with suckling rats [11], the “activity of maltase compared to control” value is listed as “significantly increased” and the “activity of sucrase compared to control” value is “significantly increased”. In the data set with suckling rats [9] (day 17, 3 hours after feeding), the “BSA concentration in rat plasma” value is “significantly decreased” and the “uptake of macromolecules, BIgG absorption” value is “significantly lower”. In the data set on suckling rats [10] (setting [13]), the Body weight turned out to be 33.2 ± 5.00 gr, the Cecum is listed as 3.42 ± 0.45 mg/g BW, the “Distal SI” value was determined as 17.8 ± 2.5 mg/g BW and the Liver is on record as 33.33 ± 1.52 mg/g BW. Also, in the data set with suckling rats [10] (setting [13]), the Pncrease was found to be 4.07 ± 0.46 mg/g BW, the “Proxima SI” value was found to be 21.49 ± 1.57 mg/g BW, the SI length came to 1.72 ± 0.17 cm/g BW and the Spleen amounted to 3.46 ± 0.44 mg/g BW. In the data set with suckling rats [10] (setting [13]), this molecule had a Stomach of 7.13 ± 0.45 mg/g BW and a Thymus of 4.65 ± 0.92 mg/g BW. Also, in the data set with suckling rats [10] (dose 10 000 USP, days 14 to 17, in words (FIG. 12)), the “effect on body growth” value was “No effect”.
